Laboratory results taken from patent US11072611B2, “Compounds and pharmaceutical compositions thereof for the treatment of inflammatory disorders” (Galapagos NV, priority 2013, dated 2021).

tested on: LPA 18:2; assay: Rat whole blood (plasma) LPA assay; format: biochemical; conditions: 2 h at 37° C., LPA 18:2 by LC-MS/MS
Description: Whole blood is collected from rats or mouse by exsanguinations on sodium heparin tube, then after centrifugation at 3000 rpm for 15 min at 4° C., plasma is stored at −80° C. Compounds are diluted in DMSO in concentration dependent manner then 0.5 μL are dispensed into 96-well plate placed in ice. Plasma is defrosted on ice then 49.5 μL of plasma are added into the well containing 0.5 μL of compound (1% DMSO final). Plates are covered with a lid in polypropylene and incubated at +37° C., 5% CO2, for 2 h under gentle shaking (except controls which are stored at −20° C.).
At the end of the incubation, controls are defrosted in ice and transferred in the incubated plates for LC-MS/MS analysis with a non GLP-validated method. For the analysis, plasma proteins from a 10 μL incubated plates are precipitated with an excess of methanol containing the internal standard, LPA 17:0. After centrifugation, the corresponding supernatant is injected on a C18 column. Analytes are eluted out of the column under isocratic conditions. An API5500 QTRAP mass spectrometer (ABSciex™) is used for the detection of LPA 18:2. No calibration curve is prepared for LPA 18:2, however relative quantities are evaluated based on the peak area.

Row | IC50 | Compound
1 | 0.01 to 100 nM | CCc1nc2c(F)cc(N3CCN(CC(=O)NC)CC3)cn2c1N(C)c1nc(-c2ccc(F)cc2)c(C#N)s1 [Compound 13, 2-(4-(3-((5-cyano-4-(4-fluorophenyl)thiazol-2-yl)(methyl)amino)-2-ethyl-8-fluoroimidazo[1,2-a]pyridin-6-yl)piperazin-1-yl)-N-methylacetamide]
2 | 0.01 to 100 nM | CCc1nc2c(F)cc(N3CCN(CC(=O)N4CC(O)C4)CC3)cn2c1N(C)c1nc(-c2ccc(F)cc2)cs1 [Compound 14, 2-(4-(2-ethyl-8-fluoro-3-((4-(4-fluorophenyl)thiazol-2-yl)(methyl)amino)imidazo[1,2-a]pyridin-6-yl)piperazin-1-yl)-1-(3-hydroxyazetidin-1-yl)ethanone]
3 | 0.01 to 100 nM | CCc1nc2cc(F)c(N3CCN(CC(=O)N4CC(O)C4)CC3)cn2c1N(C)c1nc(-c2ccc(F)cc2)c(C#N)s1 [Compound 18, 2-[(2-Ethyl-7-fluoro-6-{4-[2-(3-hydroxy-azetidin-1-yl)-2-oxo-ethyl]-piperazin-1-yl}-imidazo[1,2-a]pyridin-3-yl)-methyl-amino]-4-(4-fluoro-phenyl)-thiazole-5-carbonitrile]
4 | > 1000 nM | CCc1nc2cc(F)c(N3CCN(CC(=O)N4CC(O)C4)CC3)cn2c1N(C)c1nc(-c2ccc(F)cc2)cs1 [Compound 19, 2-[4-(2-Ethyl-7-fluoro-3-{[4-(4-fluoro-phenyl)-thiazol-2-yl]-methyl-amino}-imidazo[1,2-a]pyridin-6-yl)-piperazin-1-yl]-1-(3-hydroxy-azetidin-1-yl)-ethanone]
5 | > 1000 nM | CCc1nc2ccc(N3CCN(CC(=O)N4CC[C@@H](O)C4)CC3)cn2c1N(C)c1nc(-c2ccc(F)cc2)cs1 [Compound 26, (R)-2-(4-(2-ethyl-3-((4-(4-fluorophenyl)thiazol-2-yl)(methyl)amino)imidazo[1,2-a]pyridin-6-yl)piperazin-1-yl)-1-(3-hydroxypyrrolidin-1-yl)ethanone]
6 | > 1000 nM | CCc1nc2ccc(N3CCN(C(=O)C4CCCN4)CC3)cn2c1N(C)c1nc(-c2ccc(F)cc2)cs1 (centres unmarked) [Compound 46, (4-(2-ethyl-3-((4-(4-fluorophenyl)thiazol-2-yl)(methyl)amino)imidazo[1,2-a]pyridin-6-yl)piperazin-1-yl)(pyrrolidin-2-yl)methanone]
7 | > 1000 nM | CCc1nc2ccc(N3CCN(C(=O)C4CCN(C(C)=O)C4)CC3)cn2c1N(C)c1nc(-c2ccc(F)cc2)cs1 (centres unmarked) [Compound 48, 1-{3-[4-(2-Ethyl-3-{[4-(4-fluoro-phenyl)-thiazol-2-yl]-methyl-amino}-imidazo[1,2-a]pyridin-6-yl)-piperazine-1-carbonyl]-pyrrolidin-1-yl}-ethanone]
8 | > 1000 nM | CCc1nc2ccc(N3CCN(C(=O)CCCN(C)C)CC3)cn2c1N(C)c1nc(-c2ccc(F)cc2)cs1 [Compound 53, 4-(dimethylamino)-1-(4-(2-ethyl-3-((4-(4-fluorophenyl)thiazol-2-yl)(methyl)amino)imidazo[1,2-a]pyridin-6-yl)piperazin-1-yl)butan-1-one]
9 | > 1000 nM | CCc1nc2ccc(N3CCN(S(C)(=O)=O)CC3)cn2c1N(C)c1nc(-c2ccc(F)cc2)cs1 [Compound 54, N-(2-ethyl-6-(4-(methylsulfonyl)piperazin-1-yl)imidazo[1,2-a]pyridin-3-yl)-4-(4-fluorophenyl)-N-methylthiazol-2-amine]
10 | > 1000 nM | CCc1nc2ccc(N3CCN(S(=O)(=O)CCCN(C)C)CC3)cn2c1N(C)c1nc(-c2ccc(F)cc2)cs1 [Compound 56, N-(6-(4-(3-(dimethylamino)propylsulfonyl)piperazin-1-yl)-2-ethylimidazo[1,2-a]pyridin-3-yl)-4-(4-fluorophenyl)-N-methylthiazol-2-amine]
11 | > 1000 nM | CCc1nc2ccc(N3CCN(S(=O)(=O)CCCO)CC3)cn2c1N(C)c1nc(-c2ccc(F)cc2)cs1 [Compound 58, 3-(4-(2-ethyl-3-((4-(4-fluorophenyl)thiazol-2-yl)(methyl)amino)imidazo[1,2-a]pyridin-6-yl)piperazin-1-ylsulfonyl)propan-1-ol]
12 | > 1000 nM | CCc1nc2ccc(C3=CCN(S(C)(=O)=O)CC3)cn2c1N(C)c1nc(-c2ccc(F)cc2)cs1 [Compound 66, N-(2-ethyl-6-(1-(methylsulfonyl)-1,2,3,6-tetrahydropyridin-4-yl)imidazo[1,2-a]pyridin-3-yl)-4-(4-fluorophenyl)-N-methylthiazol-2-amine]
13 | > 1000 nM | CCc1nc2ccc(C3=CCN(S(C)(=O)=O)CC3)cn2c1N(C)c1nc(-c2ccc(OC(F)(F)F)cc2)cs1 [Compound 72, N-(2-ethyl-6-(1-(methylsulfonyl)-1,2,3,6-tetrahydropyridin-4-yl)imidazo[1,2-a]pyridin-3-yl)-N-methyl-4-(4-(trifluoromethoxy)phenyl)thiazol-2-amine]
14 | > 1000 nM | CCc1nc2ccc(C3=CCN(S(=O)(=O)CCCO)CC3)cn2c1N(C)c1nc(-c2ccc(F)cc2)cs1 [Compound 75, 3-(4-(2-ethyl-3-((4-(4-fluorophenyl)thiazol-2-yl)(methyl)amino)imidazo[1,2-a]pyridin-6-yl)-5,6-dihydropyridin-1(2H)-ylsulfonyl)propan-1-ol]
15 | > 1000 nM | CCc1nc2ccc(C3CCN(S(=O)(=O)CCN4CCOCC4)CC3)cn2c1N(C)c1nc(-c2ccc(F)cc2)cs1 [Compound 91]
16 | 0.01 to 100 nM | CCc1nc2ccc(C3CCN(S(C)(=O)=O)CC3)cn2c1N(C)c1nc(-c2ccc(F)cc2C#N)cs1 [Compound 96, 2-(2-((2-ethyl-6-(1-(methylsulfonyl)piperidin-4-yl)imidazo[1,2-a]pyridin-3-yl)(methyl)amino)thiazol-4-yl)-5-fluorobenzonitrile]
17 | 0.01 to 100 nM | CCc1nc2ccc(C3CCN(CC(=O)N4CCCC4)CC3)cn2c1N(C)c1nc(-c2ccc(F)cc2)cs1 [Compound 115, 2-(4-(2-ethyl-3-((4-(4-fluorophenyl)thiazol-2-yl)(methyl)amino)imidazo[1,2-a]pyridin-6-yl)piperidin-1-yl)-1-(pyrrolidin-1-yl)ethanone]
18 | 0.01 to 100 nM | CCc1nc2ccc(C3CCN(S(C)(=O)=O)CC3)cn2c1N(C)c1nc(-c2ccc(F)cc2)c(C#N)s1 [Compound 136, 2-((2-ethyl-6-(1-(methylsulfonyl)piperidin-4-yl)imidazo[1,2-a]pyridin-3-yl)(methyl)amino)-4-(4-fluorophenyl)thiazole-5-carbonitrile]
19 | 0.01 to 100 nM | CCc1nc2ccc(N3CCN(CC(=O)N4CC(O)C4)CC3)cn2c1N(C)c1nc(-c2ccc(F)cc2)c(C#N)s1 [Compound 138, 2-((2-ethyl-6-(4-(2-(3-hydroxyazetidin-1-yl)-2-oxoethyl)piperazin-1-yl)imidazo[1,2-a]pyridin-3-yl)(methyl)amino)-4-(4-fluorophenyl)thiazole-5-carbonitrile]
20 | 0.01 to 100 nM | CCc1nc2ccc(N3CCN(CC(=O)N(C)C)CC3)cn2c1N(C)c1nc(-c2ccc(F)cc2)c(C#N)s1 [Compound 140, 2-(4-(3-((5-cyano-4-(4-fluorophenyl)thiazol-2-yl)(methyl)amino)-2-ethylimidazo[1,2-a]pyridin-6-yl)piperazin-1-yl)-N,N-dimethylacetamide]
21 | 0.01 to 100 nM | CCc1nc2ccc(C3CCN(CC(=O)N4CC(O)C4)CC3)cn2c1N(C)c1nc(-c2ccc(F)cc2)c(C#N)s1 [Compound 141, 2-((2-ethyl-6-(1-(2-(3-hydroxyazetidin-1-yl)-2-oxoethyl)piperidin-4-yl)imidazo[1,2-a]pyridin-3-yl)(methyl)amino)-4-(4-fluorophenyl)thiazole-5-carbonitrile]
22 | 0.01 to 100 nM | CCc1nc2ccc(C3CCN(CC(=O)N4CC[C@@H](O)C4)CC3)cn2c1N(C)c1nc(-c2ccc(F)cc2)c(C#N)s1 [Compound 142, (R)-2-((2-ethyl-6-(1-(2-(3-hydroxypyrrolidin-1-yl)-2-oxoethyl)piperidin-4-yl)imidazo[1,2-a]pyridin-3-yl)(methyl)amino)-4-(4-fluorophenyl)thiazole-5-carbonitrile]
23 | 0.01 to 100 nM | CCc1nc2ccc(C3CCN(CC(=O)N4CC[C@H](O)C4)CC3)cn2c1N(C)c1nc(-c2ccc(F)cc2)c(C#N)s1 [Compound 143, (S)-2-((2-ethyl-6-(1-(2-(3-hydroxypyrrolidin-1-yl)-2-oxoethyl)piperidin-4-yl)imidazo[1,2-a]pyridin-3-yl)(methyl)amino)-4-(4-fluorophenyl)thiazole-5-carbonitrile]
24 | 0.01 to 100 nM | CCc1nc2ccc(C3CCN(CC(=O)N4CC(CO)C4)CC3)cn2c1N(C)c1nc(-c2ccc(F)cc2)c(C#N)s1 [Compound 144, 2-((2-ethyl-6-(1-(2-(3-(hydroxymethyl)azetidin-1-yl)-2-oxoethyl)piperidin-4-yl)imidazo[1,2-a]pyridin-3-yl)(methyl)amino)-4-(4-fluorophenyl)thiazole-5-carbonitrile]
25 | 0.01 to 100 nM | CCc1nc2ccc(C3CCN(CC(=O)N(C)C)CC3)cn2c1N(C)c1nc(-c2ccc(F)cc2)c(C#N)s1 [Compound 145, 2-(4-(3-((5-cyano-4-(4-fluorophenyl)thiazol-2-yl)(methyl)amino)-2-ethylimidazo[1,2-a]pyridin-6-yl)piperidin-1-yl)-N,N-dimethylacetamide]
26 | > 1000 nM | CCc1nc2ccc(C3CCN(S(=O)(=O)CCCN(C)C)CC3)cn2c1N(C)c1nc(-c2ccc(F)cc2)c(CO)s1 [Compound 149, (2-((6-(1-(3-(dimethylamino)propylsulfonyl)piperidin-4-yl)-2-ethylimidazo[1,2-a]pyridin-3-yl)(methyl)amino)-4-(4-fluorophenyl)thiazol-5-yl)]
